# Data taken from US10106553B2, “Substituted benzothiophenyl derivatives as GPR40 agonists for the treatment of type II diabetes” (Janssen Pharmaceutica NV, priority 2016, dated 2018).
# Molecular target: human GPR40 (Homo sapiens (Human), UniProt O14842)
# Experiment: GPR40 Calcium Flux Assay;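 also: calcium flux followed with the Fluo-8 fluorescent dye, intensity read each second over 8 min as compounds were added to the cells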
# Assay type: cell-based
# Details: transfected HEK293 cells stably expressing human GPR40; Ca2+ mobilization; mean data; read-out: hGPR40 Ca^2+ Assay EC50
# Chain of human GPR40 (O14842 whole entry): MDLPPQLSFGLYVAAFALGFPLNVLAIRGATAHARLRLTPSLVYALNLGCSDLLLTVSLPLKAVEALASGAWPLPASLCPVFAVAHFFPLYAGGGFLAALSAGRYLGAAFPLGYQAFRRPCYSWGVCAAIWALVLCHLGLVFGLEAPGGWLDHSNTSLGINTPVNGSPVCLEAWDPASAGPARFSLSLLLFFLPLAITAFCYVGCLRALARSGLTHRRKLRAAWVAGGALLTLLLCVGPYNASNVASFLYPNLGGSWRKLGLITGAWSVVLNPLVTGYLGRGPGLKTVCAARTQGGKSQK
row,Compound,EC50
1,"CC#C[C@@H](Cc1nnn[nH]1)c1ccc(OCc2ccc3scc(-c4ccccc4Br)c3c2)cc1 [Cpd 4, (2S)-5-(2-(4-((3-(2-Bromophenyl)benzo[b]thiophen-5-yl)methoxy)phenyl)pent-3-yn-1-yl)-1H-tetrazole]",20 nM
2,"CC#C[C@@H](Cc1nnn[nH]1)c1ccc(OCc2ccc3scc(-c4cc(Cl)ncc4C)c3c2)cc1 [Cpd 5, (2S)-4-(5-((4-(1-(1H-Tetrazol-5-yl)pent-3-yn-2-yl)phenoxy)methyl)benzo[b]thiophen-3-yl)-2-chloro-5-methylpyridine]",65 nM
3,"CC#C[C@@H](Cc1nnn[nH]1)c1ccc(OCc2ccc3scc(-c4ccc(OCC5(O)CCS(=O)(=O)CC5)cc4C)c3c2)cc1 [Cpd 6, (2S)-4-((4-(5-((4-(1-(1H-Tetrazol-5-yl)pent-3-yn-2-yl)phenoxy)methyl)benzo[b]thiophen-3-yl)-3-methylphenoxy)methyl)-4-hydroxytetrahydro-2H-thiopyran 1,1-dioxide]",190 nM
4,"CC#C[C@@H](Cc1nnn[nH]1)c1ccc(OCc2ccc3scc(-c4ccc(OC5CCOCC5)cc4C)c3c2)cc1 [Cpd 9, (2S)-5-(2-(4-((3-(2-Methyl-4-((tetrahydro-2H-pyran-4-yl)oxy)phenyl)benzo[b]thiophen-5-yl)methoxy)phenyl)pent-3-yn-1-yl)-1H-tetrazole]",270 nM
5,"CC#C[C@@H](Cc1nnn[nH]1)c1ccc(OCc2ccc3scc(-c4ccc(S(C)(=O)=O)cc4C)c3c2)cc1 [Cpd 14, (2S)-5-(2-(4-((3-(2-Methyl-4-(methylsulfonyl)phenyl)benzo[b]thiophen-5-yl)methoxy)phenyl)pent-3-yn-1-yl)-1H-tetrazole]",130 nM
6,"CC#C[C@@H](Cc1nnn[nH]1)c1ccc(OCc2ccc3scc(-c4ccc(C5CCS(=O)(=O)CC5)cc4C)c3c2)cc1 [Cpd 17, (2S)-4-(4-(5-((4-(1-(1H-Tetrazol-5-yl)pent-3-yn-2-yl)phenoxy)methyl)benzo[b]thiophen-3-yl)-3-methylphenyl)tetrahydro-2H-thiopyran 1,1-dioxide]",97 nM
7,"CC#C[C@@H](Cc1nnn[nH]1)c1ccc(OCc2ccc3sc(C)c(-c4ccc(OC5CCS(=O)(=O)CC5)cc4C)c3c2)cc1 [Cpd 18, 4-(4-(5-((4-((2S)-1-(1H-Tetrazol-5-yl)pent-3-yn-2-yl)phenoxy)methyl)-2-methylbenzo[b]thiophen-3-yl)-3-methylphenoxy)tetrahydro-2H-thiopyran 1,1-dioxide]",80 nM
8,"CC#C[C@@H](Cc1nnn[nH]1)c1ccc(OCc2ccc3scc(-c4c(C)cccc4C)c3c2)cc1 [Cpd 20, (2S)-5-(2-(4-((3-(2,6-Dimethylphenyl)benzo[b]thiophen-5-yl)methoxy)phenyl)pent-3-yn-1-yl)-1H-tetrazole]",24 nM
9,"CC#C[C@@H](Cc1nnn[nH]1)c1ccc(OCc2ccc3scc(-c4cnc(OCCOC)cc4C)c3c2)cc1 [Cpd 21, (2S)-5-(5-((4-(1-(1H-Tetrazol-5-yl)pent-3-yn-2-yl)phenoxy)methyl)benzo[b]thiophen-3-yl)-2-(2-methoxyethoxy)-4-methylpyridine]",51 nM
10,"CC#C[C@@H](Cc1nnn[nH]1)c1ccc(OCc2ccc3scc(-c4ncnn4C)c3c2)cc1 [Cpd 23, (2S)-5-(2-(4-((3-(1-Methyl-1H-1,2,4-triazol-5-yl)benzo[b]thiophen-5-yl)methoxy)phenyl)pent-3-yn-1-yl)-1H-tetrazole]",1740 nM
11,"CC#C[C@@H](Cc1nnn[nH]1)c1ccc(OCc2ccc3scc(-c4nccnc4C)c3c2)cc1 [Cpd 24, (2S)-2-(5-((4-(1-(1H-Tetrazol-5-yl)pent-3-yn-2-yl)phenoxy)methyl)benzo[b]thiophen-3-yl)-3-methylpyrazine]",550 nM
12,"CC#C[C@@H](Cc1nnn[nH]1)c1ccc(OCc2ccc3scc(-c4ncc(OCCOC)cc4C)c3c2)cc1 [Cpd 26, (2S)-2-(5-((4-(1-(1H-Tetrazol-5-yl)pent-3-yn-2-yl)phenoxy)methyl)benzo[b]thiophen-3-yl)-5-(2-methoxyethoxy)-3-methylpyridine]",34 nM
13,"CC#C[C@@H](Cc1nnn[nH]1)c1ccc(OCc2ccc3scc(-c4cccc5c4OCCO5)c3c2)cc1 [Cpd 27, (2S)-5-(2-(4-((3-(2,3-Dihydrobenzo[b][1,4]dioxin-5-yl)benzo[b]thiophen-5-yl)methoxy)phenyl)pent-3-yn-1-yl)-1H-tetrazole]",61 nM
14,"CC#C[C@@H](Cc1nnn[nH]1)c1ccc(OCc2ccc3scc(-c4cccc5c4CCN5C(=O)CC)c3c2)cc1 [Cpd 28, (2S)-1-(4-(5-((4-(1-(1H-tetrazol-5-yl)pent-3-yn-2-yl)phenoxy)methyl)benzo[b]thiophen-3-yl)indolin-1-yl)propan-1-one]",27 nM
15,"CC#C[C@@H](Cc1nnn[nH]1)c1ccc(OCc2ccc3scc(-c4cc(NS(C)(=O)=O)ccc4C)c3c2)cc1 [Cpd 29, (2S)—N-(3-(5-((4-(1-(1H-tetrazol-5-yl)pent-3-yn-2-yl)phenoxy)methyl)benzo[b]thiophen-3-yl)-4-methylphenyl)methanesulfonamide]",420 nM
16,"CC#C[C@@H](Cc1nnn[nH]1)c1ccc(OCc2ccc3scc(-c4cccc5c4CCC(C)(C)O5)c3c2)cc1 [Cpd 30, (2S)-5-(2-(4-((3-(2,2-Dimethylchroman-5-yl)benzo[b]thiophen-5-yl)methoxy)phenyl)pent-3-yn-1-yl)-1H-tetrazole]",430 nM
17,"CC#C[C@@H](Cc1nnn[nH]1)c1ccc(OCc2ccc3scc(-c4ccccc4Cl)c3c2)cc1 [Cpd 32, (2S)-5-(2-(4-((3-(2-Chlorophenyl)benzo[b]thiophen-5-yl)methoxy)phenyl)pent-3-yn-1-yl)-1H-tetrazole]",11 nM
18,"CC#C[C@@H](Cc1nnn[nH]1)c1ccc(OCc2ccc3scc(-c4cc(OCCOC)cnc4C)c3c2)cc1 [Cpd 33, (2S)-3-(5-((4-(1-(1H-Tetrazol-5-yl)pent-3-yn-2-yl)phenoxy)methyl)benzo[b]thiophen-3-yl)-5-(2-methoxyethoxy)-2-methylpyridine]",8 nM
19,"CC#C[C@@H](Cc1nnn[nH]1)c1ccc(OCc2ccc3sc(C(F)(F)F)c(C4CC4)c3c2)cc1 [Cpd 37, (2S)-5-(2-(4-((3-Cyclopropyl-2-(trifluoromethyl)benzo[b]thiophen-5-yl)methoxy)phenyl)pent-3-yn-1-yl)-1H-tetrazole]",590 nM
20,"CC#C[C@@H](Cc1nnn[nH]1)c1ccc(OCc2ccc3scc(-c4ccccc4C)c3c2)nc1 [Cpd 40, (2R)-5-(1-(1H-Tetrazol-5-yl)pent-3-yn-2-yl)-2-((3-(2-methylphenyl)benzo[b]thiophen-5-yl)methoxy)pyridine]",58 nM
21,"CC#C[C@@H](Cc1nnn[nH]1)c1ccc(OCc2ccc3scc(-c4ccc(OCCOC)cc4C)c3c2)nc1 [Cpd 41, (2R)-5-(1-(1H-Tetrazol-5-yl)pent-3-yn-2-yl)-2-((3-(4-(2-methoxyethoxy)-2-methylphenyl)benzo[b]thiophen-5-yl)methoxy)pyridine]",19 nM
22,"CC#C[C@@H](Cc1nnn[nH]1)c1ccc(OCc2ccc3scc(-c4cccc(OCCOC)c4C)c3c2)nc1 [Cpd 42, (2R)-5-(1-(1H-Tetrazol-5-yl)pent-3-yn-2-yl)-2-((3-(3-(2-methoxyethoxy)-2-methylphenyl)benzo[b]thiophen-5-yl)methoxy)pyridine]",120 nM
